Laboratory results published in the NIST ThermoML archive (doi:10.1021/je400488x).
± gives the expanded uncertainty stated by the source.

Columns and labels:
[1] = 293.15 K; 101.33 kPa; Liquid; Vibrating tube method
[2] = refractive index (Na D-line) (dimensionless); conditions: 298.15 K; 101.33 kPa; Liquid; Standard Abbe refractometry

Row | mass density [1] | refractive index [2] | Structure (SMILES)
1 | 739.8 ± 0.4 kg/m3 | 1.3689 ± 0.0005 | COC(C)(C)C [2-methoxy-2-methylpropane]
2 | 1328 ± 1 kg/m3 | – | Oc1ccc(O)cc1 [1,4-benzenediol]
